Assay [1] addresses T1, E3 ubiquitin-protein ligase CBL-B (Homo sapiens, UniProt Q13191). As to the kind of experiment: Inhibition of active phospho Cbl-b (unknown origin) using His-phospho ZAP70 as substrate incubated for 30 mins followed by substrate addition and measured after 30 mins by TR-FRET assay. For orientation: Time-resolved FRET reads energy transfer from a long-lived donor to a nearby acceptor.

The target of assay [2] is T1, E3 ubiquitin-protein ligase CBL-B. Description: Binding affinity to N-terminal Avi-tagged biotinylated human Cbl-b (40 to 426 residues) expressed in Escherichia coli by SPR assay.

T1 sequence (Q13191 whole entry): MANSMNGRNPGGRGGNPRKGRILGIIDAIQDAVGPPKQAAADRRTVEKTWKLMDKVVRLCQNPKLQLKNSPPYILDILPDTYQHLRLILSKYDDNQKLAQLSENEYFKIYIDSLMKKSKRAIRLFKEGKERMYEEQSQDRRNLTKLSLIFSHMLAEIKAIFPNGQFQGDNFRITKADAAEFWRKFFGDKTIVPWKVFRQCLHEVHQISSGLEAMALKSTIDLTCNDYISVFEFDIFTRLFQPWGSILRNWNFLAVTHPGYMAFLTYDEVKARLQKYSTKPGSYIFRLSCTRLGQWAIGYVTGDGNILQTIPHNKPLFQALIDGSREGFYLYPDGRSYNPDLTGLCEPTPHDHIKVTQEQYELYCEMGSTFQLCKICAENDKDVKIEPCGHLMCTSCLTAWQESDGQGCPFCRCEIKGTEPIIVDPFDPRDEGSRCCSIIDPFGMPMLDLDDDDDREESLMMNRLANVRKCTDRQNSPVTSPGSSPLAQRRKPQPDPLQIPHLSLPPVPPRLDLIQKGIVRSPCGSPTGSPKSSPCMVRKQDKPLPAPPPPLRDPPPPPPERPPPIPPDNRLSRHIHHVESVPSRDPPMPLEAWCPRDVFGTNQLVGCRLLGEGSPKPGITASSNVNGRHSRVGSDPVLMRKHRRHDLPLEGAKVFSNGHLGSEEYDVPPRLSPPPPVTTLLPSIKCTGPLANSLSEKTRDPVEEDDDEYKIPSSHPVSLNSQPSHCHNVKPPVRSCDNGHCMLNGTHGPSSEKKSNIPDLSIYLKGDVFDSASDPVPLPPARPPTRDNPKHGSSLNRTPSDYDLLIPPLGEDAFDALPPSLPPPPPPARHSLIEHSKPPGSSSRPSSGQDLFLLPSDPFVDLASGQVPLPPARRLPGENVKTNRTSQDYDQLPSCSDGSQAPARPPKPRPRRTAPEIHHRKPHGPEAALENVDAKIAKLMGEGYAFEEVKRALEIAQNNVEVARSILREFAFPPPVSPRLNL

Broadly, the IC50 is the midpoint of a concentration-inhibition curve. Broadly, the Kd is the equilibrium constant for the complex coming apart. Low values mean a tighter complex, high ones a looser complex. As to `COc1ccc2c(c1CC(=O)O)Oc1c(ccc(OC)c1CC(=O)N1[C@H](c3cc([N+](=O)[O-])cc(OC)c3OCC(=O)O)N(C)C(=O)[C@@H]1C)C2(C)C`, in assay [1], the IC50 is 0.34 µM. The Kd in assay [2] amounted to 0.28 µM.

In assay [1], `CCN1C(=O)[C@H](C)N(C(=O)Cc2c(OC)ccc3c2Oc2c(ccc(OC)c2CC(=O)O)C3(C)C)[C@@H]1c1cc([N+](=O)[O-])cc(OC)c1OCC(=O)O` registered an IC50 of 0.3 µM.

In assay [1], `CCOC(=O)COc1c(OC)cc([N+](=O)[O-])cc1[C@@H]1N(C)C(=O)[C@H](C)N1C(=O)Cc1c(OC)ccc2c1Oc1c(ccc(OC)c1CC(=O)O)C2(C)C` gave an IC50 of 0.89 µM.

On to `CC[C@H]1C(=O)N(C)[C@@H](c2cc([N+](=O)[O-])cc(OC)c2OCC(=O)O)N1C(=O)Cc1c(OC)ccc2c1Oc1c(ccc(OC)c1CC(=O)O)C2(C)C`, for which, in assay [1], the half-maximal inhibitory concentration (IC50) is 0.77 µM.

On to `COc1ccc2c(c1CC(=O)O)Oc1c(ccc(OC)c1CC(=O)N1[C@@H](C)C(=O)N(C)[C@@H]1c1cc([N+](=O)[O-])cc(OC)c1OCC(=O)O)C2(C)C`, for which the IC50 in assay [1] was > 20 µM. The molecule also had a dissociation constant Kd in assay [2] of 44 µM.

On to `CCOc1c(OC)cc([N+](=O)[O-])cc1[C@@H]1N(C)C(=O)[C@H](C)N1C(=O)Cc1c(OC)ccc2c1Oc1c(ccc(OC)c1C(=O)NS(C)(=O)=O)C2(C)C`, for which the 50% inhibitory concentration (IC50) in assay [1] is > 20 µM.

Values taken from ChEMBL document CHEMBL5532740, “Optimization of a Novel DEL Hit That Binds in the Cbl-b SH2 Domain and Blocks Substrate Binding” (ACS Med Chem Lett, 2024).
